Assay results: US20020173640A1, “ADAM polynucleotides, polypeptides, and antibodies” (Human Genome Sciences, Inc., priority 1999, published 2002)

What was measured:
[1] = tested on: lamivudine-resistant isolates; conditions: cited from earlier work
[2] = tested on: protease inhibitor-resistant viruses; conditions: cited from earlier work
[3] = tested on: human metastatic melanoma (M24 cells); conditions: cited from earlier work
M24 cells = conditions: murine metastasis model; cited from earlier work
alpha-2 macroglobulin = test: metal-dependant proteolysis of alpha-2 macroglobulin; assay type: biochemical; conditions: see Example 19
[4] = tested on: alpha-2-macroglobulin (α2-M); test: Complex formation between hADAM-19 and α2-M (Western blot, anti-Flag); assay type: binding, Bovine; conditions: 37° C. for 16 h; Western blot with anti-Flag Ab
Protocol: Complex Formation Between hADAM-19 and α2-M Human ADAM-19 transient transfected supernatant was concentrated by about 10-fold in a 0.4 ml Ultrafree MC filter unit (Low Binding Regenerated Cellulose membrane, MW cutoff 10 kDa) from Millipore. 40 μl of the concentrated sample were mixed with TBSZ buffer (50 mM Tris.HCl, 150 mM NaCl, 5 μM ZnCl2) with or without α2-M protein (Roche Molecular Biochemicals, final concentration, 1 unit/ml) in a total 50 μl reaction volume and incubated at 37° C. for 16 h. The samples were boiled in Lamini sample buffer and loaded on a 4-12% percent Tris-Giycine gel. In the case of purified hADAM-19 protein, one to 10 μl of purified protein were incubated with α2-M protein in TBSZ buffer in a total of 50 μl reaction volume and incubated at 37° C. for 16 h. Anti-Flag M2 antibody (Ab), at 1 μg/ml concentration (Sigma), was used as primary Ab. Peroxidase-labelled goat anti-mouse Ab from Amersham Pharmacia Biotech was used as secondary Ab at 1:2000 dilution.

[5] = tested on: rat tail tendon type I gelatin; test: Substrate specificity: gelatin; assay type: biochemical
Protocol: (§1) The following assay(s) are useful in determining the presence of protease activity. Gelatin and casein zymography are performed essentially as described (Heusen et al., Anal. Biochem., 102:196-202 (1980); Wilson et al., Journal of Urology, 149:653-658 (1993)). Samples are run on 10% polyacryamide/0.1% SDS gels containing 1% gelain orcasein, soaked in 2.5% triton at room temperature for 1 hour, and in 0.1M glycine, pH 8.3 at 37° C. 5 to 16 hours. After staining in amido black areas of proteolysis apear as clear areas agains the blue-black background. Trypsin (Sigma T8642) is used as a positive control.

[6] = tested on: alpha-2-macroglobulin (α2-M); test: Cleavage of α2-M by hADAM-19; assay type: biochemical, Bovine; conditions: 37° C.; new bands of 105 kDa and 72 kDa; dose-dependent
Protocol: The time course of hydrolysis of α2-M by hADAM-19 was examined. Ten μl of purified hADAM-19 (50 μg/ml) were mixed with 23.8 μl α2-M (0.2 unit)ml) in 66.24 μl 1× assay buffer (50 mM HEPES, pH 7.5, 0.2 M NaCl, 10 mM CaCl2, 25 μM ZnCl2 and 0.05% Brij-35) and incubated at 37° C. for 1-5 days. Trypsin was used as a positive control. The molar ratios between α2-M and hADAM-19 or trypsin were from 1:1 to 5:1. The samples were collected and boiled in SDS-PAGE sample buffer containing 5% 2-mercaptoethanol for 5-min, then loaded onto an 8% SDS-polyacrylamide gel. After electrophoresis the proteins were visualized by silver staining method.

bovine casein = test: Substrate specificity: casein; assay type: biochemical
Protocol: as §1

For `Nc1ccn([C@H]2CO[C@@H](CO)S2)c(=O)n1` [dOTC], the “activity against lamivudine-resistant isolates” value [1] is listed as “retains activity against a substantial proportion of lamivudine-resistant isolates”.

In the case of `Cc1ccccc1CNC(=O)[C@H]1N(C(=O)[C@@H](O)[C@H](Cc2ccccc2)NC(=O)c2cccc(O)c2C)CSC1(C)C` [AG-1776], the “in vitro activity against protease inhibitor-resistant viruses” value [2] is listed as “in vitro activity against protease inhibitor-resistant viruses”.

For contortrostatin, the “inhibition of M24 cell adhesion to laminin” value [3] is listed as “not laminin”, the “inhibition of M24 cell adhesion to type I collagen, vitronectin, and fibronection” value [3] is listed as “inhibit” and the “inhibition of lung colonization of M24 cells” value (M24 cells) is listed as “inhibits lung colonization”.

B1: Gene NO: 1: human ADAM polypeptide encoded by cDNA clone HDPDH32, homologous to murine metalloproteinase-disintegrin meltrin beta (protein, listed as Homo sapiens)
chain: MPGGAGAARLCLLAFALQPLRPRAAREPGWTRGSEEGSPKLQHELIIPQWKTSESPVREKHPLKAELRVMAEGRELILDLEKNEQLFAPSYTETHYTSSGNPQTTTRKLEDHCFYHGTVRETELSSVTLSTCRGIRGLITVSSNLSYVIEPLPDSKGQHLIYRSEHLKPPPGNCGFEHSKPTTRDWALQFTQQTKKRPRRMKREDLNSMKYVELYLVADYLEFQKNRRDQDATKHKLIEIANYVDKFYRSLNIRIALVGLEVWTHGNMCEVSENPYSTLWSFLSWRRKLLAQKYHDNAQLITGMSFHGTTIGLAPLMAMCSVYQSGGVNMDHSENAIGVAATMAHEMGHNFGMTHDSADCCSASAADGGCIMAAATGHPFPKVFNGCNRRELDRYLQSGGGMCLSNMPDTRMLYGGRRCGNGYLEDGEECDCGEEEECNNPCCNASNCTLRPGAECAHGSCCHQCKLLAPGTLCREQARQCDLPEFCTGKSPHCPTNFYQMDGTPCEGGQAYCYNGMCLTYQEQCQQLWGPGARPAPDLCFEKVNVAGDTFGNCGKDMNGEHRKCNMRDAKCGKIQCQSSEARPLESNAVPIDTTIIMNGRQIQCRGTHVYRGPEEEGDMLDPGLVMTGTKCGYNHICFEGQCRNTSFFETEGCGKKCNGHGVCNNNQNCHCLPGWAPPFCNTPGHGGSIDSGPMPPESVGPVVAGVLVAILVLAVLMLMYYCCRQNNKLGQLKPSALPSKLRQQFSCPFRVSQNSGTGHANPTFKLQTPQGKRKVINTPEILRKPSQPPPRPPPDYLRGGSPPAPLPAHLSRAARNSPGPGSQIERTESSRRPPPSRPIPPAPNCIVSQDFSRPRPPQKALPANPVPGRRSLPRPGGASPLRPPGAGPQQSRPLAALAPKFPEYRSQRAGGMISSKI
In the case of B1, the “metal-dependant proteolysis of alpha-2 macroglobulin” value (alpha-2 macroglobulin) is reported as “displayed metal-dependant proteolysis of alpha-2 macroglobulin”.

B2: hADAM-19: Flag-tagged hADAM-19 protein (residues 26-701 of SEQ ID NO: 9) purified from transfected 293T cells (protein, listed as Homo sapiens)
chain: REPGWTRGSEEGSPKLQHELIIPQWKTSESPVREKHPLKAELRVMAEGRELILDLEKNEQLFAPSYTETHYTSSGNPQTTTRKLEDHCFYHGTVRETELSSVTLSTCRGIRGLITVSSNLSYVIEPLPDSKGQHLIYRSEHLKPPPGNCGFEHSKPTTRDWALQFTQQTKKRPRRMKREDLNSMKYVELYLVADYLEFQKNRRDQDATKHKLIEIANYVDKFYRSLNIRIALVGLEVWTHGNMCEVSENPYSTLWSFLSWRRKLLAQKYHDNAQLITGMSFHGTTIGLAPLMAMCSVYQSGGVNMDHSENAIGVAATMAHEMGHNFGMTHDSADCCSASAADGGCIMAAATGHPFPKVFNGCNRRELDRYLQSGGGMCLSNMPDTRMLYGGRRCGNGYLEDGEECDCGEEEECNNPCCNASNCTLRPGAECAHGSCCHQCKLLAPGTLCREQARQCDLPEFCTGKSPHCPTNFYQMDGTPCEGGQAYCYNGMCLTYQEQCQQLWGPGARPAPDLCFEKVNVAGDTFGNCGKDMNGEHRKCNMRDAKCGKIQCQSSEARPLESNAVPIDTTIIMNGRQIQCRGTHVYRGPEEEGDMLDPGLVMTGTKCGYNHICFEGQCRNTSFFETEGCGKKCNGHGVCNNNQNCHCLPGWAPPFCNTPGHGGSIDSGPMPPESVG
modifications: Flag tag
In the case of B2, the “complex formation with α2-M” value [4] is reported as “formed a complex of 170 kDa band with α2-M”, the “dissolution of rat tail tendon type I gelatin” value [5] is reported as “not dissolved” and the “cleavage of α2-M” value [6] is reported as “cleaved α2-M”. The “dissolution of bovine casein” value (bovine casein) was “not dissolved”.
